# Assay results: article PMC10110893, “[…]-derived synthetic cannabinoids inhibit T-type calcium channels with divergent effects on seizures in rodent models of epilepsy” (Frontiers in Physiology, 2023)
# Read-outs that look alike come from different tables or passages of the source.
# Tests used:
# [1] = Pharmacokinetics in mouse plasma and brain after single i.p. injection; format: in vivo; conditions: both sexes, 10 mg/kg i.p.; for AUC: wildtype F1, mouse, in vivo, 10 mg/kg
# Method: SB2193 and SB2193F were prepared in ethanol-Tween 80%–0.9% saline (1:1:18 ratio) and valproic acid in 0.9% saline. All doses were completely soluble in this vehicle except for the 100 mg/kg SB2193 dose, which was a suspension.
# Male and female wildtype F1 mice aged 21–28 days postnatal received a single i. p. injection of 10 mg/kg SB2193 or SB2193F. At selected timepoints (15–240 min), mice were anesthetised with isoflurane, blood was collected via cardiac puncture and whole brains were harvested. Brains were snap frozen on dry ice, and blood plasma was isolated via centrifugation (4,000 g for 10 min, 4^○C). Brain and plasma samples were stored at −80°C until assayed.
# Plasma samples (50 μL) were spiked with an internal standard (diazepam) and vortexed with 1 M NaOH (50 μL) and methyl tert-butyl ether (1 mL) to achieve protein precipitation. The organic layer was isolated by centrifugation (4,000 g for 3 min) before being frozen for 60 min at −80°C, evaporated to dryness using N2, and reconstituted in 30% acetonitrile and 0.1% formic acid in water for analysis. Brain hemispheres were homogenised in a 10x w/v 1:1 methanol-water solution using a Biospec Tissue-Tearor (Bartlesville, United States) and centrifuged at 20,000 g for 30 min at 4°C. Supernatant (100 μL) was collected and prepared following the same method as plasma.
# SB2193 and SB2193F concentrations in brain and plasma samples were assessed by high performance liquid chromatography-tandem mass spectrometry (HPLC-MS/MS) using a Shimadzu Nexera liquid chromatograph coupled with a Shimadzu 8,030 triple quadrupole mass spectrometer (Kyoto, Japan). Samples were run through a Zorbax C18 HPLC Column equipped with a Zorbax Eclipse XDB-C8 guard column (2.1 × 50 mm, 3.5 μm particle size; Agilent, Santa Clara, United States) with an injection volume of 10 μL using a gradient elution. Mobile phases of acetonitrile and 0.1% formic acid in water were delivered at a flow rate of 0.6 mL/min over 4.16 min, with a stepwise adjustment of mobile phase concentration gradient over time to optimise ion separation.
# Quantification was achieved by comparing experimental samples to plasma and brain standards prepared with known concentrations of SB2193 or SB2193F. Samples were quantified against a 7-point standard curve (R ^2 > 0.98 for both analytes).
# Concentrations of SB2193 or SB2193F in plasma and brain at each timepoint were averaged and concentration-time curves were generated using GraphPad Prism. Pharmacokinetic parameters were calculated using non-compartmental analysis. The linear-log trapezoidal method was used to calculate drug exposure (area under the curve, AUC) using equations previously described ([Hawkins et al., 2017]).
# [2] = system: cannabinoid CB1 receptors; design: method as in Kevin et al., 2022; conditions: ref Kevin et al., 2022; cited from earlier work
# human Cav3.2 = target: T1, human Cav3.2 (Homo sapiens, UniProt O95180); assay: FLIPR calcium flux assay, Cav3.2; format: cell-based
# T1 construct: expressed in transfected cells; host or cells: HEK293 FlpIn T-Rex cells (Invitrogen)
# T1 sequence (O95180 whole entry): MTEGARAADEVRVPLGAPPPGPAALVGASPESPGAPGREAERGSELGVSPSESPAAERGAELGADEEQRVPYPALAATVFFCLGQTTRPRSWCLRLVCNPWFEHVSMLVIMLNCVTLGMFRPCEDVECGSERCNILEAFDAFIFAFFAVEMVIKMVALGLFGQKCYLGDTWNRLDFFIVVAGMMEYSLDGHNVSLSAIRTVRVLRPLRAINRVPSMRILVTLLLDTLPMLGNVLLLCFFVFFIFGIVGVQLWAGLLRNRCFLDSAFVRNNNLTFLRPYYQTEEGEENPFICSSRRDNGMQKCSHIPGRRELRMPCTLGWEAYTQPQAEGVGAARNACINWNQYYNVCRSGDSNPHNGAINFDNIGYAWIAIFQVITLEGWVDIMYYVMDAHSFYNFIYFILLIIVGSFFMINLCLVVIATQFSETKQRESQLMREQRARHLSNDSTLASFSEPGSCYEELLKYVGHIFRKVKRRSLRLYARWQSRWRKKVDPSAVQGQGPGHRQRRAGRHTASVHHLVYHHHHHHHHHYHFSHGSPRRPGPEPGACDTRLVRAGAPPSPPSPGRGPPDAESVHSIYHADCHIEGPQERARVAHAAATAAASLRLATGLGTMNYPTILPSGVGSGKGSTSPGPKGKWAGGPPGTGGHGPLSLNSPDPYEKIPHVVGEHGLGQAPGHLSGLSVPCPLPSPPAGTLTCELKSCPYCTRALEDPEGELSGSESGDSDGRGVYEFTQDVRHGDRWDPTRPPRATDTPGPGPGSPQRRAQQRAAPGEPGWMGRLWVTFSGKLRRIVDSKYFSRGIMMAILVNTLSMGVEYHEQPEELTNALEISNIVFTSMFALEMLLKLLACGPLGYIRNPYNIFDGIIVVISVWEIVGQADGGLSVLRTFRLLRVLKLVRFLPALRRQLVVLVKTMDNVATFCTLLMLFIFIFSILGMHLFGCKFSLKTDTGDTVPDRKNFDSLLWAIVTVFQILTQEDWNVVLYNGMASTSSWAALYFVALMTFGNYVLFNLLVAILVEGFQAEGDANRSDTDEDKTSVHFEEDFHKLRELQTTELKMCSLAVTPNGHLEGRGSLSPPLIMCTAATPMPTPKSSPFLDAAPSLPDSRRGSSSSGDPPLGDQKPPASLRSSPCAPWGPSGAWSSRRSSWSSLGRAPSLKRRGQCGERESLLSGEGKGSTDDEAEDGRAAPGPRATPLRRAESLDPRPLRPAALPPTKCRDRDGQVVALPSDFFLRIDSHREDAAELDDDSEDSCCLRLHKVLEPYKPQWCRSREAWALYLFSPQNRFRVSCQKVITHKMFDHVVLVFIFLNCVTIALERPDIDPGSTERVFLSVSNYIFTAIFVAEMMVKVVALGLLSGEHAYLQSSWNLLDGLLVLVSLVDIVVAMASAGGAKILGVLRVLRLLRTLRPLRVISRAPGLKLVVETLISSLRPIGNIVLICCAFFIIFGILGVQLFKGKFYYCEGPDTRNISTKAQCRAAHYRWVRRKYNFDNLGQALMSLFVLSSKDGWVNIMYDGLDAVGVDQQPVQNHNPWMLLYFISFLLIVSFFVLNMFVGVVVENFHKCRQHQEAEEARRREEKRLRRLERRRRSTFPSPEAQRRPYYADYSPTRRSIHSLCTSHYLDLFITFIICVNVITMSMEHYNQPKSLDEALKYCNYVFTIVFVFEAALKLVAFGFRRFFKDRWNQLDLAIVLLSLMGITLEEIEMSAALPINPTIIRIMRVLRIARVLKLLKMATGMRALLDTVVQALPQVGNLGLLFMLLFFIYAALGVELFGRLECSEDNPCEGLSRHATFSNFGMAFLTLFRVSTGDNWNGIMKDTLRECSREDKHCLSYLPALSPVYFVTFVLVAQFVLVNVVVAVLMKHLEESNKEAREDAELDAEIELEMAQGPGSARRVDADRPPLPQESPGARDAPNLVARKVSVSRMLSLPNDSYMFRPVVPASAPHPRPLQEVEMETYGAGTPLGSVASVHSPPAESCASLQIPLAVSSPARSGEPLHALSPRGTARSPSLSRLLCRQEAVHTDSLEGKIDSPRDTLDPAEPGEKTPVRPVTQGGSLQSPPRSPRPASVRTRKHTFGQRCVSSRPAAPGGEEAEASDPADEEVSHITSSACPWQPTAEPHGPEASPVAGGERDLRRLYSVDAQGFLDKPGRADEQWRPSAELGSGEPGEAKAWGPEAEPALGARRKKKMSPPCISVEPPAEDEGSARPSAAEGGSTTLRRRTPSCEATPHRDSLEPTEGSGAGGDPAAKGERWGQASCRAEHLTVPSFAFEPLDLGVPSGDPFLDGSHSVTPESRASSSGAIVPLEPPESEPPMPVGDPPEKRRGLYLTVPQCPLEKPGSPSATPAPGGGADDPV
# Method: Intracellular calcium flux was measured using a fluorometric imaging plate-reader (FLIPR) Calcium 5 Assay Kit and FlexStation 3 Microplate Reader (Molecular Devices, San Jose, United States). […]
# Fluorescence readings were taken at 2 s intervals (λ excitation = 485 nm, λ emission = 525 nm). […] Baseline fluorescence averaged over the 20 s interval preceding CaCl2 addition was subtracted and normalized to the vehicle response. Changes in fluorescence were measured in relative fluorescence units (RFU). […]
# human Cav3.1 = target: T2, human Cav3.1 (Homo sapiens, UniProt O43497); assay: FLIPR calcium flux assay, Cav3.1; format: cell-based
# T2 construct: expressed in transfected cells; host or cells: HEK293 FlpIn T-Rex cells (Invitrogen)
# T2 sequence (O43497 whole entry): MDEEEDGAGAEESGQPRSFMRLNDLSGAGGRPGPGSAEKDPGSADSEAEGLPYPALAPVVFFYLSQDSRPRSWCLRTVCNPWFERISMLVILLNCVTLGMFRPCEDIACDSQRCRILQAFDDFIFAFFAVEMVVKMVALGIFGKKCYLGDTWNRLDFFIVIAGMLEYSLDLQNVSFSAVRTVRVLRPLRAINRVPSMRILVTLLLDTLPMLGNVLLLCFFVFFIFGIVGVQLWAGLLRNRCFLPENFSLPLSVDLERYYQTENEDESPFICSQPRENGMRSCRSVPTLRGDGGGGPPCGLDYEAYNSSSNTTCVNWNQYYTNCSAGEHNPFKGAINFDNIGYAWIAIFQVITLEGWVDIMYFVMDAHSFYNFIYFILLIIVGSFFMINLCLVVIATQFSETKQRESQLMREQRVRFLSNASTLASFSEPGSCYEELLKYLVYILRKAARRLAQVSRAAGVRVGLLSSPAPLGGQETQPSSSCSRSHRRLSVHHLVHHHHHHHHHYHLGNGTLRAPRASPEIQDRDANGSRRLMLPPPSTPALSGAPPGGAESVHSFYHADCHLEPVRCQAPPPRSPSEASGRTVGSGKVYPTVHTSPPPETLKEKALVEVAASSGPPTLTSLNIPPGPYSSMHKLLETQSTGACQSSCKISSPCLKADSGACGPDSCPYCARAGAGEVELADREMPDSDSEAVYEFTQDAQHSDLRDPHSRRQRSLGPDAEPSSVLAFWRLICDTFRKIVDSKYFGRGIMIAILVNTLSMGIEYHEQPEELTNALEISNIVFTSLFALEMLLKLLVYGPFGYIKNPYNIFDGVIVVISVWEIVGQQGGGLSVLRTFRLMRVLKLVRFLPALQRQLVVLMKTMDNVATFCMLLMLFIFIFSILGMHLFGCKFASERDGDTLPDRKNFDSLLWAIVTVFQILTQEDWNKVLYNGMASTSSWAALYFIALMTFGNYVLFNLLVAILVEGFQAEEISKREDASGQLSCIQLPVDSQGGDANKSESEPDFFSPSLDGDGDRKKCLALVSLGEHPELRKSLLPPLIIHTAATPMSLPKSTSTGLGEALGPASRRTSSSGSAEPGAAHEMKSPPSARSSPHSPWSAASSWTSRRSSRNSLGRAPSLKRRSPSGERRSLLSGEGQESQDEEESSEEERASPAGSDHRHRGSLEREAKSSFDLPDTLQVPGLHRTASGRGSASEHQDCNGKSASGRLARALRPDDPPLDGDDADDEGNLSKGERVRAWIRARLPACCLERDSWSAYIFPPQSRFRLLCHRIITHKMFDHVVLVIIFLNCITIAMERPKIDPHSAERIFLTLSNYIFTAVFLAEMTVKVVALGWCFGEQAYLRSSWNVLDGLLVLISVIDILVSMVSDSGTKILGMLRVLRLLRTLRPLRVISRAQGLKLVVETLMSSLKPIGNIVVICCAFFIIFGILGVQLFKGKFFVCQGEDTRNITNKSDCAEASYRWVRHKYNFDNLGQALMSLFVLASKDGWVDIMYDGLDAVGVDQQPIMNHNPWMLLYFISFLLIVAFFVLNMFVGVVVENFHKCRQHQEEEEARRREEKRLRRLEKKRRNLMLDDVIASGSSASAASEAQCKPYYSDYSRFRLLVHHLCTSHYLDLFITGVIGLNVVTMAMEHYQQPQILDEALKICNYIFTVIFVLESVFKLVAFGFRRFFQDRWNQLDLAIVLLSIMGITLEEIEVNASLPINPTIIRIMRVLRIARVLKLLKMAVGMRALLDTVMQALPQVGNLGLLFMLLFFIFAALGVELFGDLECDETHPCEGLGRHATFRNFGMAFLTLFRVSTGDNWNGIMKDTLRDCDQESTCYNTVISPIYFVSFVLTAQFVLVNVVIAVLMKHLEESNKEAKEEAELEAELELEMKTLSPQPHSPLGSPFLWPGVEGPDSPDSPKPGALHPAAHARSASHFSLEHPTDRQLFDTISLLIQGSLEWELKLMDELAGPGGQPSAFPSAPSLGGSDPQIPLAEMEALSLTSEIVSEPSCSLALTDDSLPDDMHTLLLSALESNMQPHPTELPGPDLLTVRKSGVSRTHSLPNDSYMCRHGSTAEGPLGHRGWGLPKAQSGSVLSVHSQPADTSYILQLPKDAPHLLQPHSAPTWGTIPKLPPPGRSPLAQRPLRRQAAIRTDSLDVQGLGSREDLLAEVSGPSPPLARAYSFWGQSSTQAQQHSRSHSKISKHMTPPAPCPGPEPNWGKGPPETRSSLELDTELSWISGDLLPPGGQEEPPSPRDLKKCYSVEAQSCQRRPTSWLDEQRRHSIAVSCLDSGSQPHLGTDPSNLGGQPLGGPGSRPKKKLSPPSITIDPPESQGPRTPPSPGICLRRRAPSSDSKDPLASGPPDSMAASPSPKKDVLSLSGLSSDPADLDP
# Method: HEK293 FlpIn T-Rex cells (Invitrogen, CA, United States) stably expressing human Cav3.1, Cav3.2, or Cav3.3 were maintained in Dulbecco’s Modified Eagle Medium (DMEM) supplemented with 10% foetal bovine serum (FBS), 1% penicillin-streptomycin (P/S) at 37°C, and 5% CO2 as previously described ([Bladen et al., 2021]; [Udoh et al., 2022]). Hygromycin (80 μg/mL) and blasticidin (15 μg/mL) were used as selection antibiotics and cells were passaged at 80% confluency. For experiments, cells were resuspended in Leibovitz’s L-15 media (containing 1% FBS, 1% P/S, 15 mM glucose, 2 μg/mL tetracycline), plated in black, clear-bottomed poly-D-lysine-coated 96-well plates (90 μL) (Corning, NY, United States), and incubated overnight in ambient air at 37°C. All compounds tested in cellular assays were prepared as stock solutions in DMSO and final DMSO concentration was 0.1%.
# Intracellular calcium flux was measured using a fluorometric imaging plate-reader (FLIPR) Calcium 5 Assay Kit and FlexStation 3 Microplate Reader (Molecular Devices, San Jose, United States). Calcium 5 dye (90 μL) prepared in low potassium HBSS (Thermo Fisher Scientific) containing (in mM) 145 NaCl, 22 HEPES, 0.338 Na2HPO4, 4.17 NaHCO3, 0.441 KH2PO4, 0.407 MgSO4, 0.493 MgCl2, 1.26 CaCl2, 5.56 glucose, and […] with pH 7.4 was applied to each well and incubated for 1 h at 37°C, ambient air prior to testing.
# Fluorescence readings were taken at 2 s intervals (λ excitation = 485 nm, λ emission = 525 nm). Following 2 min baseline reading, 20 μL of SB2193, SB2193F, or NNC 55-0396 (10 nM—10 μM) was added to cells and read for 5 min, then CaCl2 (10 mM) was added and read for 3 min. Baseline fluorescence averaged over the 20 s interval preceding CaCl2 addition was subtracted and normalized to the vehicle response. Changes in fluorescence were measured in relative fluorescence units (RFU). All compounds were assayed in ≥ five independent experiments (n = 5–8) performed in duplicate. Order of compound addition and location on the plate were varied between replicates. Data was fit to a four-parameter non-linear dose-response curve using GraphPad Prism 8.2.0 software (La Jolla, United States) to determine IC50 values.
# [3] = wildtype F1, in vivo, ip, mouse plasma
smiles,measurement,setting,value
CCCCCn1cc(C(=O)N2CCN(C(=O)OC(C)(C)C)CC2)c2ccccc21 [SB2193],Tmax,[1]; [3],≤ 15 min
same,half-life,[1]; [3],29 min
same,Cmax,"[1]; wildtype F1, in vivo, ip, mouse plasma, read-out: Cmax",750 ± 50 nM
same,Cmax,"[1]; wildtype F1, in vivo, ip, mouse plasma, read-out: Cmax (μg/mL)",0.3 ± 0.02 µg/mL
same,Kp,"[1]; wildtype F1, in vivo, ip, mouse, read-out: brain-plasma ratio",2.7
same,Tmax,"[1]; wildtype F1, ip, mouse brain",≤ 15 min
same,half-life,"[1]; wildtype F1, ip, mouse brain",28 min
same,Cmax,"[1]; wildtype F1, ip, mouse brain, read-out: Cmax",3000 ± 1000 nM
same,Cmax,"[1]; wildtype F1, ip, mouse brain, read-out: Cmax (μg/mL)",1.2 ± 0.4 µg/mL
same,AUC,"[1]; ip, mouse brain, brain concentration converted assuming density of 1 g/mL",583 ng·h/mL
same,AUC,"[1]; ip, mouse plasma",217 ng·h/mL
same,activity at cannabinoid CB1 receptors,[2],minimal activity
same,IC50,human Cav3.2,5.9 µM
same,IC50,human Cav3.1,0.75 µM
